Laboratory results: paper PMC8486872, “A rational blueprint for the design of chemically-controlled protein switches” (Nature Communications, 2021)
“And” between values parts separate entries of the source, which are not always exact repeats. Equal entries are not always repeated.

Experiments:
HEK293T cells [1] = assay: Effect of drugs on protein production (Luciferase reporter, constitutive Gal4-Rel65); format: cell-based; conditions: Suppl Fig 5b
Procedure: Supplementary Figure 5: Drug toxicity assessment. […]
HEK293T cells. The HEK293T cells were transfected with the Luciferase reporter and constitutive Gal4-Rel65 expression plasmid (pCMV-Gal4-Rel65-pA). Drugs were added to the transfected cells 24 hours post-transfection, quantification of luciferase activity 24 hours after the addition of the drugs. Each bar represents the mean of three biological replicates ± s.d overlaid with a scatter dot plot of the original […]

HEK293T cells [2] = assay: CCK8 cell viability assay; format: cell-based; conditions: for Normalization of Supplementary Figure5a (CCK8 absorbance): in % (unit assumed); for Absorbance at 450nm (CCK8 colormetric assay): Suppl Fig 5a
Procedure: A cell counting kit-8 (CCK-8) assay (Sigma) was used to measure the cytotoxicity of three drugs on HEK293T cells. 10,000 cells per well were pre-seeded into 96 well plates in 100 µl complete culture medium. The culture medium was changed into drug containing medium with drug concentrations of 0 µM (0.1% DMSO),1 µM, 5 µM and 10 µM. After 24 h drug incubation, 10 µl WST-8 solution was added to each well for 4 h incubation under standard conditions. The absorbance at 450 nm was determined by a multiplate reader (Tecan Infinite 500).
Supplementary Figure 5: Drug toxicity assessment. a) Drug effects on cell viability of HEK293T cells. HEK293T cells were added different concentrations of drugs for an incubation period of 24 hours. WST-8 was added 24 h after drug incubation and the absorbance at 450 nm was measured 4 h later. […]

[3] = test system: SEAP expression in HEK293T cells; assay: Background signal of SEAP reporter and single-construct controls; format: cell-based
Procedure: Supplementary Figure 7: Dose-dependence and reversibility characterization of CDHs in CDH- […]
transfected with SEAP reporter S132 and treated with 1 µM Drugs 12 hours post transfection.
Quantification of SEAP was performed 24 hours after drug treatment. b) Drug specificity of CDH-TFs. […]
Background signal of SEAP reporter in the absence of the CDH-GEMS system. HEK293T cells were transfected with pLS566 SEAP reporter plasmids and treated with drugs. Quantification of SEAP was performed 24 hours post drug treatment. f) SEAP activity upon transfecting single or paired […]
Quantification of SEAP activity of three CDHs with DMSO (dark color), specific (light color) and unspecific drug treatment (gray). […]
(culture medium) in panels of b, c, f and g were collected every 12 hours. Values were normalized to zero based on the SEAP expression at time 0. a, b, e, f, g) The bar charts show the mean ± s.d. of n = 3 biologically independent samples overlaid with a scatter dot plot of the original data points.

[4] = test system: JAK/STAT pathway SEAP expression in HEK293T cells; assay: AIR-GEMS ON-switch SEAP assay; conditions: Fig S11a; 100 nM Drug-2
Procedure: We fused the AIR components in the ectodomains of the GEMS and measured SEAP activity as a reporter for drug-triggered activation.
HEK293T cells were maintained in DMEM medium with 10% FBS (Gibco) and Pen/Strep (Thermo Fisher). Cells were maintained and split every two days at around 80% confluence. HEK293T cells were seeded 24 h before transfection, and transfected with the lipofectamine 3000 kit (Thermo Fisher). Plasmids were cotransfected according to the Table S7. For the drug OFF-switch experiments, drugs were added 12 h post transfection and incubated with cells for 24 h before the SEAP detection assay.
Representative data of cellular assays are presented as individual values and mean values (bars). n = 3 refers to biological replicates. All IC50/EC50 values of cellular assays (CDH-TF, CDH-GEMS, AIR-TF and AIR-GEMS) reported were calculated using four-parameter nonlinear regression ± s.d.
Bcl2 mutants were cloned into the AIR-GEMS

[5] = biological target: T1, LD3 in the presence of Drug-1 (Homo sapiens, UniProt Q07817, DEL45-84/F105I/R102E); assay: SPR pre-screening and competition of Drug-1 resistant Bcl-XL mutants binding LD3; conditions: 5 µM receptor mixed with 10 µM Drug-1
T1 construct: 6xHis (N); made in house; host or cells: E. coli BL21(DE3)
T1 sequence (Q07817 with tags, fused parts or gaps DEL45-84/R102E/F105I limits assumed): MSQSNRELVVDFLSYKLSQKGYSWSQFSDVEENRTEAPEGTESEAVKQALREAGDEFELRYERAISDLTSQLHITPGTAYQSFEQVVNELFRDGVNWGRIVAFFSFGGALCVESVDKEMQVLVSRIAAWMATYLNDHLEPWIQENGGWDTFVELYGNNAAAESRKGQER
Procedure: Supplementary Figure 10: Biophysical and cellular characterization of designed Drug-1- […]
a) Pre-screening of Drug-1 resistant Bcl-XL mutants by SPR. 5 µM of Bcl-XL and five mutants were mixed with 10 µM of Drug-1 and injected over the LD3 immobilized chip to analyse the binding response. […]
dilutions of Drug-1 were pre-mixed with 4 µM LD3 and injected over iBcl-XL_v3 immobilized chip to collect the response. c) Dissociation constant measurement of iBcl-XL_v3 and LD3. Sensorgrams are in black dashed curves and the fitted curves in solid red lines. Kd was using a 1:1 binding model. d) […]
normalized to the positive control (DMSO group). […]

mdm2 = mdm2 (Homo sapiens, UniProt Q00987); design: method as in PMID 26768531; conditions: read-out: reported binding affinity to mdm2; cited from earlier work
mdm2, sequence (Q00987 26-109 limits assumed): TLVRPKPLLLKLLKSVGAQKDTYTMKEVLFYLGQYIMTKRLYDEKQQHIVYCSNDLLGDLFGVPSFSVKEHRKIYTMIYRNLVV

Compound | Luciferase production (luminescence) (HEK293T cells [1]; 1 µM) | Luciferase production (luminescence) (HEK293T cells [1]; 5 µM) | Luciferase production (luminescence) (HEK293T cells [1]; 10 µM) | Normalization of Supplementary Figure5a (CCK8 absorbance) (HEK293T cells [2]; 1 µM) | Normalization of Supplementary Figure5a (CCK8 absorbance) (HEK293T cells [2]; 5 µM) | Normalization of Supplementary Figure5a (CCK8 absorbance) (HEK293T cells [2]; 10 µM) | Absorbance at 450nm (CCK8 colormetric assay) (HEK293T cells [2]; 1 µM) | Absorbance at 450nm (CCK8 colormetric assay) (HEK293T cells [2]; 5 µM) | Absorbance at 450nm (CCK8 colormetric assay) (HEK293T cells [2]; 10 µM) | other results
CN(C)CC#Cc1ccc(OCCCc2sc(N3CCc4cccc(C(=O)Nc5nc6ccccc6s5)c4C3)nc2C(=O)O)c(F)c1 [Drug1] | 298584 and 267400 and 264776 | 259902 and 193284 and 231257 | 268448 and 250247 and 248473 | 107.788 and 102.052 and 84.2322 | 106.001 and 108.808 and 85.1912 | 101.677 and 96.2978 and 81.5907 | 1.2364 and 1.1706 and 0.9662 | 1.2159 and 1.2481 and 0.9772 | 1.1663 and 1.1046 and 0.9359 | –
CC1(C)CCC(CN2CCN(c3ccc(C(=O)NS(=O)(=O)c4ccc(NCC5CCOCC5)c([N+](=O)[O-])c4)c(Oc4cnc5[nH]ccc5c4)c3)CC2)=C(c2ccc(Cl)cc2)C1 [Drug2] | 239858 and 221880 and 230049 | 235551 and 211876 and 214947 | 249510 and 226877 and 232289 | 91.0979 and 90.3939 and 94.3325 | 94.2973 and 98.0561 and 96.7732 | 95.7875 and 97.7823 and 95.6546 | 2.3291 and 2.3111 and 2.4118 | 2.4109 and 2.507 and 2.4742 | 2.449 and 2.5 and 2.4456 | –
Bcl2 | – | – | – | – | – | – | – | – | – | Reporter signal, single constructs vs pair ([3]; Suppl Fig 7f, CDH2): 12.2479 and 10.8467 and 9.94; Reporter signal, single constructs vs pair ([3]; Suppl Fig 7g (so in the source), CDH2): 12.2479 and 10.8467 and 9.94; Reporter signal, 100 nM Drug-2 [4]: 0.7857 and 0.8309 and 0.7087
Bcl-XL: wildtype drug receptor protein of CDH-1 | – | – | – | – | – | – | – | – | – | inhibition by Drug-1 of binding to LD3 immobilized chip [5]: complete inhibition; Reporter signal, single constructs vs pair ([3]; Suppl Fig 7f, CDH1): 17.1033 and 16.0472 and 16.2645; Reporter signal, single constructs vs pair ([3]; Suppl Fig 7g (so in the source), CDH1): 17.1033 and 16.0472 and 16.2645
stapled p53 peptide: stapled p53 peptide (PDB 5afg) used as input peptide motif (LTFAEYWAQLAS) | – | – | – | – | – | – | – | – | – | Kd (mdm2): 0.012 ± 0.003 µM
